Data published in publication PMC7468280 (Scientific Reports, 2020).
Entries after “also recorded” stand apart in the source; their conditions may differ. Where two headings read alike, the source gives them in different places. Positions of bridges follow the written chain, without caps; N, C: chain ends. Non-standard residues stand in square brackets, D forms with d. Residues, ends and D or L forms follow the SMILES beside them. No end group written: not given here.

Tests used:
Stability in human serum = type: in vitro ADME; settings: 1 mg/ml peptide, 90% human serum in HBSS, 37 °C, HPLC at 220 nm, three replicates (b16 says human plasma)
Procedure: Figure 3 Representation of the percentage of peptide that remains in solution with respect to the initial one at different times. The percentage is calculated by dividing the area (HPLC analysis) at time “t” by the initial area of the peptide in the test conditions. Bar errors represents SEM of three replicates. Software GraphPad Prism 5.0 (https://graphpad-prism.software.informer.com/5.0/) was used.
The stability of E1P47 peptides was studied in human serum, a protease-rich media. Briefly, a concentration of 1 mg/ml of each peptide was incubated with 90% human serum in Hanks Balanced Salt Solution (HBSS) at 37 °C and aliquots of 40 µl were taken at different time-points during 24 h and treated with 200 µl of methanol to immediately precipitate the serum proteins. After 30 min of centrifugation at 4 °C, the supernatant was analysed by HPLC at 220 nm to calculate the content of intact peptide in each sample and by UPLC/MS to identify the main metabolites generated after the enzymatic hydrolysis.

HIV-1BaL [1] = settings: read-out: IC50 against HIV-1BaL, TZM-bl cells sustained, peptide 1 h before virus, 48 h culture in presence of drug (sustained), luciferase, mean ± SEM of three independent experiments in triplicate
HIV-1BaL [2] = settings: human colorectal explants, p24 ELISA, mean ± SEM of three independent experiments in triplicate
[3] = 90% human serum in Hanks Balanced Salt Solution (HBSS); settings: 37 °C, up to 24 h
[4] = read-out: IC50 against HIV-1BaL, colorectal explants pulse, peptide 1 h before and 2 h during virus (3 h pulse), washed, 15 days culture without drug
[5] = read-out: IC50 against HIV-1BaL, colorectal explants sustained, peptide before and during virus and throughout 15 days culture (sustained)

Row | Compound | metabolised at 8 h, 1 mg/ml (Stability in human serum; 8 h, methanol precipitation, read-out: peptide degraded at 8 h) [%] | IC50 (HIV-1BaL [1]) [µM] | IC50 (HIV-1BaL [2]; [4]) [µM] | IC50 (HIV-1BaL [2]; [5]) [µM] | stability to human plasma/serum proteases (in words) (Stability in human serum; up to 24 h) | cleaved bond [3] | not cleaved [3]
1 | CC[C@H](C)[C@H](NC(=O)[C@@H](NC(=O)CNC(=O)[C@H](CCCNC(=N)N)NC(=O)[C@H](Cc1c[nH]c2ccccc12)NC(=O)[C@H](Cc1ccccc1)NC(=O)[C@H](CC(=O)O)NC(=O)[C@H](Cc1ccccc1)NC(=O)[C@@H]1CCCN1C(=O)[C@@H](NC(=O)[C@H](CCCCN)NC(=O)[C@H](Cc1c[nH]c2ccccc12)NC(=O)[C@H](CC(C)C)NC(=O)[C@H](Cc1ccc(O)cc1)NC(=O)[C@H](CCC(=O)O)NC(=O)[C@H](CC(C)C)NC(=O)[C@@H](NC(=O)[C@@H](N)Cc1c[nH]c2ccccc12)[C@@H](C)CC)C(C)C)C(C)C)C(N)=O [E1P47] (H-WILEYLWKVPFDFWRGVI-NH2) | ~50 | 0.76 ± 0.08 | 38.5 ± 17.2 | 8 ± 4.6 | – | – | –
2 | CC[C@@H](C)[C@@H](N)C(=O)N[C@@H](C(=O)NCC(=O)N[C@H](CCCNC(=N)N)C(=O)N[C@H](Cc1c[nH]c2ccccc12)C(=O)N[C@H](Cc1ccccc1)C(=O)N[C@H](CC(=O)O)C(=O)N[C@H](Cc1ccccc1)C(=O)N1CCC[C@@H]1C(=O)N[C@@H](C(=O)N[C@H](CCCCN)C(=O)N[C@H](Cc1c[nH]c2ccccc12)C(=O)N[C@H](CC(C)C)C(=O)N[C@H](Cc1ccc(O)cc1)C(=O)N[C@H](CCC(=O)O)C(=O)N[C@H](CC(C)C)C(=O)N[C@@H](C(=O)N[C@H](Cc1c[nH]c2ccccc12)C(N)=O)[C@H](C)CC)C(C)C)C(C)C [RE-E1P47] (H-[dI][dV]G[dR][dW][dF][dD][dF][dP][dV][dK][dW][dL][dY][dE][dL][dI][dW]-NH2) | – | – | 28.7 ± 23.2 | 3.7 ± 1.7 | remained practically unaltered for almost 24 h | – | –
3 | CC[C@H](C)[C@H](NC(=O)[C@@H](NC(=O)CNC(=O)[C@@H]1CCCCNC(=O)C[C@H](NC(=O)[C@H](Cc2ccccc2)NC(=O)[C@@H]2CCCN2C(=O)[C@@H](NC(=O)[C@H](CCCCN)NC(=O)[C@H](Cc2c[nH]c3ccccc23)NC(=O)[C@H](CC(C)C)NC(=O)[C@H](Cc2ccc(O)cc2)NC(=O)[C@H](CCC(=O)O)NC(=O)[C@H](CC(C)C)NC(=O)[C@@H](NC(=O)[C@@H](N)Cc2c[nH]c3ccccc23)[C@@H](C)CC)C(C)C)C(=O)N[C@@H](Cc2ccccc2)C(=O)N[C@@H](Cc2c[nH]c3ccccc23)C(=O)N1)C(C)C)C(N)=O [StP1-E1P47] (H-WILEYLWKVPFDFWKGVI-NH2; lactam 12-15) | – | 0.11 ± 0.01 | 33 ± 27.4 | 2.8 ± 0.5 | – | – | –
4 | CC[C@H](C)[C@H](NC(=O)[C@@H](NC(=O)CNC(=O)[C@H](CCCNC(=N)N)NC(=O)[C@H](Cc1c[nH]c2ccccc12)NC(=O)[C@H](Cc1ccccc1)NC(=O)[C@H](CC(=O)O)NC(=O)[C@H](Cc1ccccc1)NC(=O)[C@@H]1CCCN1C(=O)[C@@H](NC(=O)[C@@H]1CCCCNC(=O)CC[C@H](NC(=O)[C@H](CC(C)C)NC(=O)[C@@H](NC(=O)[C@@H](N)Cc2c[nH]c3ccccc23)[C@@H](C)CC)C(=O)N[C@@H](Cc2ccc(O)cc2)C(=O)N[C@@H](CC(C)C)C(=O)N[C@@H](Cc2c[nH]c3ccccc23)C(=O)N1)C(C)C)C(C)C)C(N)=O [StP2-E1P47] (H-WILEYLWKVPFDFWRGVI-NH2; lactam 4-8) | – | 0.16 ± 0.01 | 32 ± 15.5 | 2.9 ± 0.4 | – | – | –
5 | WILEYLWKVPFDFWKGVI-NH2 | – | – | – | – | – | Trp7-K8, major | intact
6 | WILEYLWKVPFDFWRGVI | – | – | – | – | – | Glu4-Y5, major; also recorded: Gly16-V17, major; also recorded: Trp1-I2, major; also recorded: Phe11-D12, major; also recorded: Trp7-K8, major | –
7 | WILEYLWKVPFDFWRGVI-NH2 | – | – | – | – | – | Phe11-D12, major | intact
